Experimental data published in paper PMC3152581 (Journal of natural products, 2010).

Target: BACE1 (memapsin-2) (Homo sapiens, UniProt P56817)
Test: BACE1 assay
Assay type: biochemical
Conditions: biological screening; result in words

Chain of BACE1 (memapsin-2) (P56817 46-501): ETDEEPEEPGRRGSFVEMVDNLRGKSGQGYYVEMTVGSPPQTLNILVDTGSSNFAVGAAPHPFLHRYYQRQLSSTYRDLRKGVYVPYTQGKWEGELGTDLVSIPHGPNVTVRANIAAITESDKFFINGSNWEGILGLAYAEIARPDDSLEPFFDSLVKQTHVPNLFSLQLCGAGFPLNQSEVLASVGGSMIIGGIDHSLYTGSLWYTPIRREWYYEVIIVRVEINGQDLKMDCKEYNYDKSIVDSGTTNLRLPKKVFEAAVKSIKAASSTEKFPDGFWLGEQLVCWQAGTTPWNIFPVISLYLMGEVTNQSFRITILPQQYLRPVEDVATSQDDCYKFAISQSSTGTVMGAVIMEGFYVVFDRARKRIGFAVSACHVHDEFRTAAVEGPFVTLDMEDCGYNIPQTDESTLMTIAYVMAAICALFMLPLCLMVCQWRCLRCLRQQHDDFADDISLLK

- Inhibition of BACE1 (in words): significantly less active
SMILES: C[C@@]12CC[C@H](O)[C@@H]3COC(=C31)C(=O)c1cc3c(OCCO)cccc3cc12 [Compound 1, Xestosaprol F]
